What all share (format): in vivo
A short description of data set [1]: Acute toxicity in the mouse (LD50, Litchfield and Wilcoxon). To be noted: in vivo, 7 days observation. Here is the method:
(§1) The acute toxicity of the proucts was studied on male and female adult mice of Swiss stock, and on male and female adult rats of Sprague-Dawley stock, by oral and subcutaneous administration. For each method of administration, the tested doses were administered in geometrical progression to 10 animals (5 males and 5 females). After treatment, the animals were kept under observation for 7 days. On termination of this period, the LD50 and the relative confidence limits were calculated by the Litchfield and Wilcoxon method (Pharmacol. Exp. Ther. 96-99, 1949).

The nature of data set [2]: Acute toxicity in the rat (LD50, Litchfield and Wilcoxon). To be noted: in vivo, 7 days observation. On the procedure:
as §1

In data set [3] the test system is mice of Swiss stock. As to the kind of experiment: Acute toxicity in the mouse (LD50, Litchfield and Wilcoxon). As to conditions: 7 days observation. On the procedure:
as §1

The test system of data set [4] is rats of Sprague-Dawley stock. As to the kind of experiment: Acute toxicity in the rat (LD50, Litchfield and Wilcoxon). To be noted: 7 days observation. Here is the method:
as §1

In general, LD50 refers to the dose expected to kill half of the subjects tested. Low values mean greater toxicity, high ones lower toxicity. Take `CC(=O)Oc1ccccc1C(=O)N[C@@H](CSCC(=O)O)C(=O)O` [MSF 01, S-(carboxymethyl)-N-(2-acetoxybenzoyl)-L-cysteine]: the LD50 at 168 h in data set [1] (oral) is 4800 mg/kg; in data set [1] (sc, subcutaneous), 4500 mg/kg; in data set [2] (oral), 4800 mg/kg; in data set [2] (sc, subcutaneous), 4500 mg/kg.
`CC(=O)Oc1ccccc1C(=O)OC(=O)CSC[C@H](N)C(=O)OC(=O)c1ccccc1OC(C)=O` [MSF 03, S-carboxymethylcysteine bis-acetylsalicylanhydride]: the LD50 at 168 h in data set [1] (oral) was 4300 mg/kg; in data set [1] (sc, subcutaneous) it was 4100 mg/kg; in data set [2] (oral) it was 4500 mg/kg; in data set [2] (sc, subcutaneous), 4200 mg/kg.
In the case of “S-(carboxymethyl)-L-cysteine acetylsalicylanhydride [MSF 02]”, the median lethal dose (LD50) in data set [3] (oral) is recorded as 4600 mg/kg; in data set [3] (subcutaneous), 4400 mg/kg; in data set [4] (oral), 4800 mg/kg; in data set [4] (subcutaneous), 4500 mg/kg.
